Assay [1] concerns the target T1, recombinant human Wee1A kinase (Homo sapiens, UniProt P30291).
T1 construct: full length Wee1 kinase was expressed by baculovirus in insect cells; purchased Invitrogen PV3817; host or cells: insect cells (baculovirus)
Put plainly: Wee1A kinase binding assay (LanthaScreen Eu time-resolved FRET). An outline of the steps:
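Full-length, baculovirus-expressed GST-tagged Wee1A (5 nM) was mixed with 2 nM Eu-anti-GST antibody, 30 nM kinase tracer 178 and compound (1% DMSO). Buffer was 50 mM HEPES pH 7.5, 10 mM MgCl2, 1 mM EGTA, 0.01% Brij-35, incubated 60 min at room temperature. TR-FRET 665/615 nm emission ratios from duplicates were curve-fitted.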

In assay [2] the target is T2, Myt1 kinase (recombinant PMYT-1) (Homo sapiens, UniProt Q99640).
T2 construct: full length PMYT-1 was expressed by baculovirus in insect cells; purchased Invitrogen A30984; host or cells: insect cells (baculovirus)
T2 sequence (Q99640 1-499): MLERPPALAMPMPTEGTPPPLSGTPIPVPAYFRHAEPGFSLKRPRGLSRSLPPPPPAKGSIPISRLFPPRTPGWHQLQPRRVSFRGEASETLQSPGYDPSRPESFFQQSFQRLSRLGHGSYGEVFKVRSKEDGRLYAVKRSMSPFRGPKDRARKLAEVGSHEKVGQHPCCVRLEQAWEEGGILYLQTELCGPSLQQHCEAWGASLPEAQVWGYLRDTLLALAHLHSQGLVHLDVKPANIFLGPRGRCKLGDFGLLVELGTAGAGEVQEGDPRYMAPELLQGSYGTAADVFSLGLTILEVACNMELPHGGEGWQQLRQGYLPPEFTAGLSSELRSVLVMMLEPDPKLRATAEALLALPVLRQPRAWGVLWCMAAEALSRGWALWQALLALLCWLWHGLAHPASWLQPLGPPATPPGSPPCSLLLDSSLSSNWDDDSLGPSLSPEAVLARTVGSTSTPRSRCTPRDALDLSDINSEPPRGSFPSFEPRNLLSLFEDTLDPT
In words: Myt1 kinase binding assay (LanthaScreen Eu Kinase Binding Assay). The settings on record: 3 nM tracer 178, 2.5 nM PMYT-1, 1 nM Eu-labeled antibody; read-out: Myt1 kinase Binding IC50. An outline of the steps:
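The binding affinity of compounds for Myt1 kinase was measured with a LanthaScreen Europium (Eu) Kinase Binding Assay, a time-resolved FRET format in which test compounds compete against a labeled kinase tracer, and the results were expressed as IC50 values describing compound binding to Myt1.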
For orientation: Time-resolved FRET reads energy transfer from a long-lived donor to a nearby acceptor.

For assay [3], the target named is T3, Wee1A kinase (CDK1 Tyr15 phosphorylation in ACHN renal cell carcinoma cells) (Homo sapiens, UniProt P30291).
T3 construct: pCDK1 Tyr15 immunofluorescence read-out
Put plainly: High-content imaging of pCdk1 Y15, Wee1A kinase target engagement in ACHN cells. The format is cell-based. A digest of the protocol:
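ACHN cells exposed to compound for 4 h over 7–5,000 nM or 0.3–200 nM, then fixed and immunostained for pCDK1 Y15 with DAPI nuclear counterstain. The percentage of pCdk1 Y15 nucleus-positive cells relative to DMSO control was imaged per well; EC50 from dose-response curves.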

The test system of the next assay is ACHN cells. Put plainly: Cell Titer Glo viability assay, ACHN cells. The format is cell-based. To be noted: 144 h, absolute EC50. As to the method:
Each of an ACHN renal cell carcinoma cell line (ATCC) and a DAOY medulloblastoma cell line, and an A427 lung cancer line were cultured in Minimum Essential Medium Eagle supplemented with 10% fetal calf serum (Sigma), 1% Penicillin-Streptomycin and 10 mM HEPES buffer (HyClone). Cell cultures were kept in a humidified incubator at 37 °C and 5% CO2. Cells were routinely tested for Mycoplasma contamination.
ACHN cells, DAOY cells, or A427 cells were seeded at a density of 400, 250, or 500 cells per well respectively, in tissue culture treated 384 well plates (Corning Costar). After overnight incubation, cells were treated with drugs at concentrations ranging from 17 to 10 000 nM. Viability compared to untreated control was assessed at 144 h using Cell Titer Glo assay 2.0 (Promega). […] “NT” means the compounds was not tested in the indicated cells.

The mark [4] stands for this setting: 30 nM tracer 178, 5 nM Wee1A kinase, 2 nM Eu-labeled antibody, 60 minutes at room temperature, read-out: Wee1A kinase Binding IC50.
Setting [5] is: 4 h treatment, nuclear positivity for pCdk1 Y15 vs DMSO control, read-out: CDK1 Tyr15 Phosphorylation EC50.

The results in this text go back to US20260364080A1, “PYRAZOLO-PYRIMIDINONE COMPOUNDS FOR USE IN METHODS OF INHIBITING WEE1 A KINASE” (Acrivon Therapeutics, Inc., priority 2023, published 2026).

Molecules are shown by their SMILES. Where two headings read alike, the source gives them in different places. A value given as a limit tells only on which side of the number the result lay.

T3 sequence (P30291 whole entry): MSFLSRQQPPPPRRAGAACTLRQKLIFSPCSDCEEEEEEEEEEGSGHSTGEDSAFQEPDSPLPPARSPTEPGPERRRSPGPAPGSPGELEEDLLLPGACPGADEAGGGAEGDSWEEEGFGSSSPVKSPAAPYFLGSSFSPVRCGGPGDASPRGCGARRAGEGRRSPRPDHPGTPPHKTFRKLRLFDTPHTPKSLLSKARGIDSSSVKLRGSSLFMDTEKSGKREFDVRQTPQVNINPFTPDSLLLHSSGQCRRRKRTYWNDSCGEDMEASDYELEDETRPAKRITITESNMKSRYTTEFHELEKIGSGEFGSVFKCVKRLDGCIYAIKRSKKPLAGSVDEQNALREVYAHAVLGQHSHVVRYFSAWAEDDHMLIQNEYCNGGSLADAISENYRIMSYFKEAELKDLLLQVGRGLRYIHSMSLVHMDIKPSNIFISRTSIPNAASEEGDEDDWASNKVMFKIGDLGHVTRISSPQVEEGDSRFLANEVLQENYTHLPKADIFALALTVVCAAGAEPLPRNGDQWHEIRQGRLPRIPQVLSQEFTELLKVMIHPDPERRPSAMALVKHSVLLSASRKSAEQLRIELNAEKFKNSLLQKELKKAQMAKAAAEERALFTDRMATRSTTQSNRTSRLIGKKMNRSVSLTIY
T1 sequence (P30291 whole entry): as above

What is called IC50 is the concentration that gives 50% inhibition. For orientation: EC50 means the concentration that produces a half-maximal response. In the case of `CCn1c(=O)c2cnc(Nc3ccc(F)cc3)nc2n1-c1cccc(OC2CCN(C)CC2)n1` [Compound 290, 2-ethyl-6-(p-fluorophenylamino)-1-[6-(1-methyl-4-piperidyloxy)-2-pyridyl]-1,2-dihydro-3H-1,2,5,7-tetraazainden-3-one], the IC50 in assay [1] (setting [4]) is below 10 nM; in assay [2], 100 to 500 nM. In addition, the EC50 (in assay [3] (setting [5]); in the assay on ACHN cells (Homo sapiens)) was 100 to 500 nM in each case.
Regarding `C=CCn1c(=O)c2cnc(Nc3ccc4c(cnn4C)c3)nc2n1-c1cccc(O[C@H]2CCCN(C)C2)n1` [Compound 332, 1-{6-[(S)-1-methyl-3-piperidyloxy]-2-pyridyl}-2-allyl-6-(1-methyl-1H-indazol-5-ylamino)-1,2-dihydro-3H-1,2,5,7-tetraazainden-3-one], the results for the IC50 in assay [1] (setting [4]) and in assay [2] were below 10 nM and 100 to 500 nM, respectively. Besides, the EC50 in assay [3] (setting [5]) is below 100 nM; in the assay on ACHN cells (Homo sapiens), 100 to 500 nM.
Take `C=CCn1c(=O)c2cnc(Nc3ccc(OC)c(C)c3)nc2n1-c1cccc(NC2CCNCC2)n1` [Compound 127, 2-allyl-6-(4-methoxy-3-toluidino)-1-[6-(4-piperidylamino)-2-pyridyl]-1,2-dihydro-3H-1,2,5,7-tetraazainden-3-one]: the IC50 was below 10 nM in assay [1] (setting [4]) and 100 to 500 nM in assay [2]. The results for the EC50 (in assay [3] (setting [5]); in the assay with ACHN cells (Homo sapiens)) were 100 to 500 nM and 500 to 1000 nM, respectively.
`C=CCn1c(=O)c2cnc(Nc3ccnc(C)c3)nc2n1-c1cccc(OC2CCNCC2)n1` [Compound 113, 2-allyl-6-(2-methyl-4-pyridylamino)-1-[6-(4-piperidyloxy)-2-pyridyl]-1,2-dihydro-3H-1,2,5,7-tetraazainden-3-one]: the half-maximal inhibitory concentration (IC50) in assay [1] (setting [4]) was below 10 nM; in assay [2], 20 to 100 nM. The EC50 was 500 to 1000 nM in assay [3] (setting [5]) and above 1000 nM in the assay on ACHN cells (Homo sapiens).
For `C=CCn1c(=O)c2cnc(Nc3ccc4c(cnn4C)c3)nc2n1-c1cccc(O[C@@H]2CCCN(C)C2)n1` [Compound 331, 6-[(1-methyl-1H-indazol-5-yl)amino]-1-(6-{[(3R)-1-methylpiperidin-3-yl]oxy}pyridin-2-yl)-2-(prop-2-en-1-yl)-1H,2H,3H-pyrazolo[3,4-d]pyrimidin-3-one], the IC50 in assay [1] (setting [4]) is below 10 nM. Also, the EC50 in assay [3] (setting [5]) is below 100 nM; in the assay on ACHN cells (Homo sapiens), 100 to 500 nM.
For `C=CCn1c(=O)c2cnc(Nc3ccc4ccoc4c3)nc2n1-c1cccc(OC2CCN(C)CC2)n1` [Compound 195], the IC50 in assay [2] was 100 to 500 nM. The EC50 in assay [3] (setting [5]) is below 100 nM; with ACHN cells it was at most 100 nM.
`C=CCn1c(=O)c2cnc(Nc3cccc(Br)c3)nc2n1-c1cccc(OC2CCN(C)CC2)n1` [Compound 269, 2-allyl-6-(m-bromophenylamino)-1-[6-(1-methyl-4-piperidyloxy)-2-pyridyl]-1,2-dihydro-3H-1,2,5,7-tetraazainden-3-one]: the results for the concentration for half-maximal inhibition (IC50) in assay [1] (setting [4]) and in assay [2] were below 10 nM and below 20 nM, respectively. For the same compound, in assay [3] (setting [5]), the EC50 was 100 to 500 nM.
Turning to `C=CCn1c(=O)c2cnc(Nc3cncc(C#N)c3)nc2n1-c1cccc(OC2CCN(C)CC2)n1` [Compound 330, 5-[(1-{6-[(1-methylpiperidin-4-yl)oxy]pyridin-2-yl}-3-oxo-2-(prop-2-en-1-yl)-1H,2H,3H-pyrazolo[3,4-d]pyrimidin-6-yl)amino]pyridine-3-carbonitrile], the IC50 in assay [1] (setting [4]) is below 10 nM; in assay [2], 100 to 500 nM. In addition, the EC50 in assay [3] (setting [5]) was in the range of 100 to 500 nM.
`CCn1c(=O)c2cnc(Nc3ccc4c(cnn4C)c3)nc2n1-c1cccc(N(C)C2CCN(C)CC2)n1` [Compound 287, 1-{6-[N-methyl(1-methyl-4-piperidyl)amino]-2-pyridyl}-2-ethyl-6-(1-methyl-1H-indazol-5-ylamino)-1,2-dihydro-3H-1,2,5,7-tetraazainden-3-one]: the IC50 in assay [1] was below 10 nM. For the same compound, the EC50 in assay [3] (read-out: CDK1 Tyr15 Phosphorylation EC50, 4 h treatment, nuclear positivity for pCdk1 Y15 vs DMSO control) was below 100 nM; in the assay with ACHN cells (Homo sapiens) it was 100 to 500 nM.
With `C=CCn1c(=O)c2cnc(Nc3ccc4c(cnn4C)c3)nc2n1-c1cccc(O[C@H]2CCN(C)[C@H](C)C2)n1` (stereo in doubt) [Compound 380, rel-2-allyl-1-(6-(((2R,4S)-1,2-dimethylpiperidin-4-yl)oxy)pyridin-2-yl)-6-((1-methyl-1H-indazol-5-yl)amino)-1,2-dihydro-3H-pyrazolo[3,4-d]pyrimidin-3-one], the IC50 in assay [1] (setting [4]) was below 10 nM; in assay [2] it was 100 to 500 nM. In addition, the concentration for a half-maximal effect (EC50) in assay [3] (setting [5]) is 100 to 500 nM.
On to `C=CCn1c(=O)c2cnc(Nc3ccccc3)nc2n1-c1cccc(NC2CCNCC2)n1` [Compound 123, 6-(phenylamino)-1-{6-[(piperidin-4-yl)amino]pyridin-2-yl}-2-(prop-2-en-1-yl)-1H,2H,3H-pyrazolo[3,4-d]pyrimidin-3-one], for which the IC50 in assay [1] (setting [4]) is below 10 nM; in assay [2], 100 to 500 nM. In addition, the EC50 in assay [3] (setting [5]) lay in the range of 500 to 1000 nM.
For `C=CCn1c(=O)c2cnc(Nc3ccc4c(cnn4C)c3)nc2n1-c1cccc(N[C@@H]2CCN(C(C)C)C2)n1` [Compound 120, 6-[(1-methyl-1H-indazol-5-yl)amino]-2-(prop-2-en-1-yl)-1-(6-{[(3R)-1-(propan-2-yl)pyrrolidin-3-yl]amino}pyridin-2-yl)-1H,2H,3H-pyrazolo[3,4-d]pyrimidin-3-one], in that order: below 10 nM, 100 to 500 nM and below 100 nM.
For `C=CCn1c(=O)c2cnc(Nc3cccc(C)c3)nc2n1-c1cccc(NC2CCNCC2)n1` [Compound 126, 2-allyl-1-[6-(4-piperidylamino)-2-pyridyl]-6-m-toluidino-1,2-dihydro-3H-1,2,5,7-tetraazainden-3-one], in that order: below 10 nM, above 500 nM and 100 to 500 nM.
With `Cn1c(=O)c2cnc(Nc3ccc(Cl)cc3)nc2n1-c1cccc(OC2CCNCC2)n1` [Compound 153, 6-(p-chlorophenylamino)-2-methyl-1-[6-(4-piperidyloxy)-2-pyridyl]-1,2-dihydro-3H-1,2,5,7-tetraazainden-3-one], the concentration for half-maximal inhibition (IC50) in assay [1] (setting [4]) was below 10 nM; in assay [2], 20 to 100 nM. Moreover, the EC50 in assay [3] (setting [5]) fell in the range of 500 to 1000 nM.
As for `CCn1c(=O)c2cnc(Nc3cccc(-c4cncnc4)c3)nc2n1-c1cccc(OC2CCNCC2)n1` [Compound 366, 2-ethyl-1-[6-(4-piperidyloxy)-2-pyridyl]-6-[m-(5-pyrimidinyl)phenylamino]-1,2-dihydro-3H-1,2,5,7-tetraazainden-3-one], the concentration for half-maximal inhibition (IC50) in assay [1] (setting [4]) is below 10 nM; in assay [2], 100 to 500 nM. For the same compound, in assay [3] (setting [5]), the EC50 is 500 to 1000 nM.
Take `C=CCn1c(=O)c2cnc(Nc3ccc4c(cnn4C4CC4)c3)nc2n1-c1cccc(OC2CCNCC2)n1` [Compound 376, 2-allyl-6-((1-cyclopropyl-1H-indazol-5-yl)amino)-1-(6-(piperidin-4-yloxy)pyridin-2-yl)-1,2-dihydro-3H-pyrazolo[3,4-d]pyrimidin-3-one]: the half-inhibitory concentration (IC50) is below 10 nM in assay [1] (setting [4]) and below 20 nM in assay [2]. In assay [3] (setting [5]), the EC50 was below 100 nM.
For `C=CCn1c(=O)c2cnc(Nc3ccc4c(cnn4C)c3)nc2n1-c1cccc(O[C@@H]2CCN[C@H](C)C2)n1` (stereo in doubt) [Compound 381, 2-allyl-6-((1-methyl-1H-indazol-5-yl)amino)-1-(6-(((2R,4R)-2-methylpiperidin-4-yl)oxy)pyridin-2-yl)-1,2-dihydro-3H-pyrazolo[3,4-d]pyrimidin-3-one], in that order: below 10 nM, 100 to 500 nM and below 100 nM.
